From ChEMBL document CHEMBL4364344, “Design, synthesis and evaluation of activity and pharmacokinetic profile of new derivatives of xanthone and piperazine in the central nervous system” (Bioorg Med Chem Lett, 2019)

Assays:
[1] = Mutagenicity in Salmonella typhimurium TA98 at 50 ug/plate preincubated for 20 mins followed by addition of top agar and measured after 48 hrs by Ames test; type: toxicity; details: salmonella enterica subsp. enterica serovar typhimurium
[2] = Mutagenicity in Salmonella typhimurium TA102 at 50 ug/plate preincubated for 20 mins followed by addition of top agar and measured after 48 hrs by Ames test; type: toxicity; details: salmonella enterica subsp. enterica serovar typhimurium
[3] = target: Beta-2 adrenergic receptor (Homo sapiens) (UniProt P07550); assay: Displacement of [3H](-)CGP 12177 from recombinant human beta 2 receptor at 10 uM after 120 mins by radiometric scintillation analysis relative to control
[4] = target: Cannabinoid receptor 1 (Homo sapiens) (UniProt P21554); assay: Displacement of [3H]CP 55940 from recombinant human CB1 receptor at 10 uM by radiometric scintillation analysis relative to control
[5] = target: Endothelin-1 receptor (Homo sapiens) (UniProt P25101); assay: Displacement of [125I]endothelin-1 from recombinant human ETA receptor at 10 uM after 120 mins by radiometric scintillation analysis relative to control
[6] = species: Rattus norvegicus; assay: Displacement of [3H]GABA from rat brain GABA receptor at 10 uM after 30 mins by radiometric scintillation analysis relative to control
[7] = target: Melanocortin receptor 4 (Homo sapiens) (UniProt P32245); assay: Displacement of [125I]NDP-alpha -MSH from recombinant human MC4 receptor at 10 uM after 120 mins by radiometric scintillation counting analysis relative to control
[8] = target: Melatonin receptor type 1A (Homo sapiens) (UniProt P48039); assay: Displacement of [125I]2-iodomelatonin from recombinant human MT1 receptor at 10 uM after 240 mins by radiometric scintillation counting analysis relative to control
[9] = target: Neuropeptide Y receptor type 2 (Homo sapiens) (UniProt P49146); assay: Displacement of [125I]peptide YY from human Y2 receptor at 10 uM after 60 mins by radiometric scintillation analysis relative to control
[10] = target: Mu-type opioid receptor (Homo sapiens) (UniProt P35372); assay: Displacement of [3H]DAMGO from recombinant human MOR receptor at 10 uM after 120 mins by radiometric scintillation analysis relative to control
[11] = target: Nociceptin receptor (Homo sapiens) (UniProt P41146); assay: Displacement of [3H]nociceptin from recombinant human ORL1 receptor at 10 uM after 60 mins by radiometric scintillation analysis relative to control
[12] = target: L-type calcium channel (verapamil binding site) (Homo sapiens, UniProt O60840+Q01668+Q13698+Q13936); assay: Displacement of [3H] Diltiazem from human L-type calcium channel verapamil binding site at 10 uM after 20 hrs by scintillation analysis relative to control; type: protein assay; details: probe [3H] Diltiazem
[13] = species: Rattus norvegicus; assay: Displacement of [3H] TBPS from rat GABA gated chloride channel at 10 uM measured after 120 mins by scintillation counter method relative to control relative to control
[14] = species: Rattus norvegicus; assay: Displacement of [3H]batrachotoxinin from rat brain sodium channel site 2 at 10 uM after 60 mins by scintillation counting analysis relative to control relative to control
[15] = target: Sodium-dependent dopamine transporter (Homo sapiens) (UniProt Q01959); assay: Displacement of [3H]BTCP recombinant human dopamine transporter at 10 uM after 120 mins by radiometric scintillation analysis relative to control
[16] = target: 5-hydroxytryptamine receptor 2A (Homo sapiens, UniProt P28223); assay: Displacement of [3H]ketanserin from recombinant human 5-HT2A receptor after 60 mins by radiometric scintillation analysis
[17] = target: 5-hydroxytryptamine receptor 2B (Homo sapiens, UniProt P41595); assay: Displacement of [125I](+/-)DOI from recombinant human 5-HT2B receptor after 60 mins by radiometric scintillation analysis
Chain of 5-hydroxytryptamine receptor 2B (P41595 whole entry): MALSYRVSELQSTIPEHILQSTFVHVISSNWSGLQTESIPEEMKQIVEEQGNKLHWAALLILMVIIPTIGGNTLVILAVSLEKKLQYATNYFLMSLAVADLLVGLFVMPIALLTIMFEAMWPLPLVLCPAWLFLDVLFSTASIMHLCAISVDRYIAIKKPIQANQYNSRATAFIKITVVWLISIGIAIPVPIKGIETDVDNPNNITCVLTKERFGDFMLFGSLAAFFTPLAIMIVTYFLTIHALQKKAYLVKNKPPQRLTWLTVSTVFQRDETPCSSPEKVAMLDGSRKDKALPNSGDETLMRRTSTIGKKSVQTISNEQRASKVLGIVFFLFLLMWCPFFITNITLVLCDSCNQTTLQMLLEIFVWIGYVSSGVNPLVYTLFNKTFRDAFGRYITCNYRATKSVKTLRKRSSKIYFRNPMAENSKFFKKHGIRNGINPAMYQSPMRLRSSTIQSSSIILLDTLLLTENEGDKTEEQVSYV

Chain of Sodium-dependent dopamine transporter (Homo sapiens) (Q01959 whole entry): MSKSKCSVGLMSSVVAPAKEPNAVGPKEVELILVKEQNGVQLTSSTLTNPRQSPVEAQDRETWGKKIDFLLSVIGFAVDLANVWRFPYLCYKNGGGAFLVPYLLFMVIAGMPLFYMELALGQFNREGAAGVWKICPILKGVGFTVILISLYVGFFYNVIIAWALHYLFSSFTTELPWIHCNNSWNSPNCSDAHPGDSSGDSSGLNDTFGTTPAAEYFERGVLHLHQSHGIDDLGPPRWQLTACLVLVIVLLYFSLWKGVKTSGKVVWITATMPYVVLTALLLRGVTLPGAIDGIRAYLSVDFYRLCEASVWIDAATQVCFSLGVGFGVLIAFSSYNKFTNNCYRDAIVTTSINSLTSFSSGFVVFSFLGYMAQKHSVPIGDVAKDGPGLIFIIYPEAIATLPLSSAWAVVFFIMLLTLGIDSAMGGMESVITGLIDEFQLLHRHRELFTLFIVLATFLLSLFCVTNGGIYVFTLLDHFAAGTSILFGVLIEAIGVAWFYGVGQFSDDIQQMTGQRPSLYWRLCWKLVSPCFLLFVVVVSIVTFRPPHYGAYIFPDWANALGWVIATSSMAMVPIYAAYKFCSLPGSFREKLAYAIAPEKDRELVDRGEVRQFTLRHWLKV
Chain of Cannabinoid receptor 1 (Homo sapiens) (P21554 whole entry): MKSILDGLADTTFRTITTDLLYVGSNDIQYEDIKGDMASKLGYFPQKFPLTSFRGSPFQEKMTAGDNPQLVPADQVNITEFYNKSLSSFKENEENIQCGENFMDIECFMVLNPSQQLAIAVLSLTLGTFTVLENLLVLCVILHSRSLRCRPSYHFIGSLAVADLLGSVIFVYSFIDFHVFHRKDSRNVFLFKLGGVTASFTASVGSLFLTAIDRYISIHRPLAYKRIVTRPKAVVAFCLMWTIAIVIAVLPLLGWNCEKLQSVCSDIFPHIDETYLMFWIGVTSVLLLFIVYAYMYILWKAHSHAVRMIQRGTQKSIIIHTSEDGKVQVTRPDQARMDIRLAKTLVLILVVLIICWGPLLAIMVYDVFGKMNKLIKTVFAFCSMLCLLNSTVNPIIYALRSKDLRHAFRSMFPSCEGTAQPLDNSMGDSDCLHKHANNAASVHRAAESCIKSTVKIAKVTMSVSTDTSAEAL
Chain of Endothelin-1 receptor (Homo sapiens) (P25101 whole entry): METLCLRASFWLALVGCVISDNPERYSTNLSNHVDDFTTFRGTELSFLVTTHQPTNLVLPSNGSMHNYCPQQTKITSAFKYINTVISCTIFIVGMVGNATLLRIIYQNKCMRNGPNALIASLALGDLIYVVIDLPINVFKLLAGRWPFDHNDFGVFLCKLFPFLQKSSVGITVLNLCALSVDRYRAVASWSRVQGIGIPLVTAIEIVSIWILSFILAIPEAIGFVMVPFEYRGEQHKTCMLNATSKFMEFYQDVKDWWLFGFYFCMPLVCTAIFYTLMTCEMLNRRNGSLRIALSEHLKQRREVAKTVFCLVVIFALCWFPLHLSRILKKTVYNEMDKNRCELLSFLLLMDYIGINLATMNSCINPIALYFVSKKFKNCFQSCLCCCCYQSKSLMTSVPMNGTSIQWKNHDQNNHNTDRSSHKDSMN
Chain of Beta-2 adrenergic receptor (Homo sapiens) (P07550 whole entry, looked up): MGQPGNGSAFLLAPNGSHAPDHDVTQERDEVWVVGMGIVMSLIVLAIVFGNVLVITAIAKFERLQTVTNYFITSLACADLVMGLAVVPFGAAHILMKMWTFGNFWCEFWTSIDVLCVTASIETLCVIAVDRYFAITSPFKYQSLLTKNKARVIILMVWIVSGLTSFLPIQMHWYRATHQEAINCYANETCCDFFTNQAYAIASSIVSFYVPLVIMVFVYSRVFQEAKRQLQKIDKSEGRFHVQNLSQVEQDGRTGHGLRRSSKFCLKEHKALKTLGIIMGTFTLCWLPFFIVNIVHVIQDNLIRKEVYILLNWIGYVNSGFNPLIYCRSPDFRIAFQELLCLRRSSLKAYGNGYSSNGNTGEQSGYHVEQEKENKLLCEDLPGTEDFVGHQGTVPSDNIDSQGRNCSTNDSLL
Chain of Neuropeptide Y receptor type 2 (Homo sapiens) (P49146 whole entry): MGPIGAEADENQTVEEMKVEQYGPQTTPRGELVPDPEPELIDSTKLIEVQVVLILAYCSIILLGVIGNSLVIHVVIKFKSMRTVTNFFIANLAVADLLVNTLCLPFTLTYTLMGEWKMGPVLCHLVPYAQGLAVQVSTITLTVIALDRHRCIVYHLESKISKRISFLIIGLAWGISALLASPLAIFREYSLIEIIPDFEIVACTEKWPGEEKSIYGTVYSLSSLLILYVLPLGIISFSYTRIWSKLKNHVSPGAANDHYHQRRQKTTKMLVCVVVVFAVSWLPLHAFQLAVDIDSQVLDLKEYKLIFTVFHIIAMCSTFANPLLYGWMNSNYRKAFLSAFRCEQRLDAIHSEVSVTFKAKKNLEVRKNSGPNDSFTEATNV
Chain of Melanocortin receptor 4 (Homo sapiens) (P32245 whole entry): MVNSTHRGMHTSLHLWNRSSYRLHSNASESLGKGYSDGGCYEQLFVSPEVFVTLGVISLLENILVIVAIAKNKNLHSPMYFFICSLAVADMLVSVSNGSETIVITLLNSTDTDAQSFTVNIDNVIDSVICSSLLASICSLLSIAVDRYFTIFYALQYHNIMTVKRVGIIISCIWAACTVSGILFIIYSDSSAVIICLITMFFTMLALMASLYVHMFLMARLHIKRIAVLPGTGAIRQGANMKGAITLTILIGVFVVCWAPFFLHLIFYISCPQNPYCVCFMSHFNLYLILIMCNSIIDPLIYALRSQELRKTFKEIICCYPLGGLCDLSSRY
Chain of 5-hydroxytryptamine receptor 2A (P28223 whole entry): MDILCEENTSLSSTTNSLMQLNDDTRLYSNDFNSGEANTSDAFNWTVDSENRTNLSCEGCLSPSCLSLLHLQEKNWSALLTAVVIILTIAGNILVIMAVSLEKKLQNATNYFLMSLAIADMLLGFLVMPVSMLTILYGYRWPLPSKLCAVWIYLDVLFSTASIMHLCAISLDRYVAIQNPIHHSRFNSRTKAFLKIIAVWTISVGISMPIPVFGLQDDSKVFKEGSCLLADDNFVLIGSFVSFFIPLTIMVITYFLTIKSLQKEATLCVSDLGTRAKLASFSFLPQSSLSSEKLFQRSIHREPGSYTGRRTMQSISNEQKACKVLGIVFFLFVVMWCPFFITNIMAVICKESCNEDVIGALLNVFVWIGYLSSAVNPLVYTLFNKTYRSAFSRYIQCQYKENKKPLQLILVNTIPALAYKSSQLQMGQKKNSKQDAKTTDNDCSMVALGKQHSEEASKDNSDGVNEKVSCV
Chain of Melatonin receptor type 1A (Homo sapiens) (P48039 whole entry): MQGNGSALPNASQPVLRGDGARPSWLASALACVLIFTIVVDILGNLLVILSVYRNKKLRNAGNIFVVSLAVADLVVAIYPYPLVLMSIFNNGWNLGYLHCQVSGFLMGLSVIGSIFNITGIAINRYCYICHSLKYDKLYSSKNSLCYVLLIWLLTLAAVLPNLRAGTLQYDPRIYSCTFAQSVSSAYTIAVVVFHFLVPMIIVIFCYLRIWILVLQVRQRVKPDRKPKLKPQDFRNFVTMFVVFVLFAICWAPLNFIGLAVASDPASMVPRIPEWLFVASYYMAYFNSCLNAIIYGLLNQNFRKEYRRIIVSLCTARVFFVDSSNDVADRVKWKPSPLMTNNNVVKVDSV
Chain of Mu-type opioid receptor (Homo sapiens) (P35372 whole entry): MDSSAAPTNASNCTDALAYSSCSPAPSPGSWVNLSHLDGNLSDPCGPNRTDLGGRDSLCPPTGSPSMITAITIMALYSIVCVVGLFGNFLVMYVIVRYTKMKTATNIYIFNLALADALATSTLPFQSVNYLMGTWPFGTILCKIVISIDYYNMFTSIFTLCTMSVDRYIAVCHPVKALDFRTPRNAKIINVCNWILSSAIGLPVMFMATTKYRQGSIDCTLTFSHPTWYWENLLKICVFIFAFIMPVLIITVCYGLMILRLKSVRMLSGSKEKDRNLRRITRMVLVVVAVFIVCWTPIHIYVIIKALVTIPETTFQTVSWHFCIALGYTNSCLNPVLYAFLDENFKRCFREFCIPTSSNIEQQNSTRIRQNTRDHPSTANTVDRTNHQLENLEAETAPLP
Chain of Nociceptin receptor (Homo sapiens) (P41146 whole entry): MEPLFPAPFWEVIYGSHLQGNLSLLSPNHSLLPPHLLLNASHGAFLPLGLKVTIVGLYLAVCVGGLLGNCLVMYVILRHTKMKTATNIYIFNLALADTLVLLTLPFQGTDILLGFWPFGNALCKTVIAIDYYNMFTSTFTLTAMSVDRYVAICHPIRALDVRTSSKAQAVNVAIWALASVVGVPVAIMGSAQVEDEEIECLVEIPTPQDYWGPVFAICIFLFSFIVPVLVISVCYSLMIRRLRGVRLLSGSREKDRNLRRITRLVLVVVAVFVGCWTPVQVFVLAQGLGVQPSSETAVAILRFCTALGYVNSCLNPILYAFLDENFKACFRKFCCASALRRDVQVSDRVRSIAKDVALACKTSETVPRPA

Work on `Cl.Cl.O=c1c2cc(Cl)ccc2oc2ccc(CN3CCN(CCOCCO)CC3)cc12` yielded an Activity_index [1] of 0.76, an Activity_index [2] of 0.78 and an inhibition [3] of 3.7%. For the same compound, the inhibition [4] was -0.1%, the inhibition [5] was 4.9% and the inhibition [6] was 11.7%. The inhibition [7] was -4%, the inhibition [8] was 11.1% and the inhibition [9] was 3.1%. For the same compound, the inhibition [10] was 11.8%, the inhibition [11] was 6.5% and the inhibition at 20 h, 10 µM [12] was 42.2%. The inhibition [13] was 5%, the inhibition [14] was 78.7% and the inhibition [15] was 28.7%. For the same compound, the Ki [16] was 2020 nM and the Ki [17] was 2900 nM.
